From publication PMC4581228, “Membrane Affinity of Platensimycin and Its Dialkylamine Analogs” (International Journal of Molecular Sciences, 2015)

Experiments:
[1] = test system: A98S MscS in the cytoplasmic membrane of E. coli; test: Patch-clamp of A98S MscS in excised spheroplast patches (activation midpoint shift); conditions: A98S MscS, cytoplasmic addition of 0.6 mM, six independent patches
Description: A pB10b vector was used to house and express the mscS gene in the triple-knockout E. coli strain MJF465 (mscS^−, mscL^−, mscK^−). The A98S MscS mutant, generated and partially characterized previously, was chosen for its higher sensitivity to inner leaflet drug partitioning.
Spheroplasts were generated as described previously. The experimental bath solution contained 400 mM sucrose, 200 mM KCl, 50 mM MgCl2, 5 mM CaCl2, and 5 mM HEPES and was titrated to pH 7.4 with KOH. Membrane patches were obtained on borosilicate glass pipettes and recorded at 30 mV pipette voltage set by a microelectrode amplifier. The midpoint of activation for channels in each patch was determined at two-minute intervals for the duration of the experiment via a 1 s ramp of saturating pressure. Analogs of platensimycin were pre-diluted in either ethanol or bath solution and perfused into the bath to achieve the desired concentration; control injections of equivalent volumes of ethanol had no effect on the midpoint of activation. Negative pressure (suction) was applied with the HSPC-1 high speed pressure clamp apparatus from ALA Scientific. Programming of the pressure protocols and data analysis was performed with the PClamp10 suite (Axon Instr., Foster City, CA, USA). The principle of lateral pressure measurements using two experimental systems, lipid monolayers and patch-clamp, is illustrated in Figure 1.
Similarly, the bulk-membrane partitioning coefficient (Kmem) was estimated from the values of relative increase in MscS activation pressure midpoint (p0.5) measured in patch-clamp experiments at different concentrations of intercalating agents by linear fit of Δp0.5 as a function of log(Cd).

[2] = test system: WT MscS in the cytoplasmic membrane of E. coli; test: Patch-clamp of WT MscS in excised spheroplast patches (activation midpoint shift); conditions: cytoplasmic addition of 0.6 mM, six independent patches
Description: We explored the A98S gain-of-function mutant of MscS and found it to be a more suitable sensor. In pressure ramp experiments this mutant activates earlier, but apparently has the same tension dependency of inactivation as WT [20]. […] The serine-for-alanine substitution hydrophilizes the outer portion of the hydrophobic pore. As a result, the remaining hydrophobic region is localized to the cytoplasmic portion of the pore, placing the gate more asymmetrically relative to the mid-plane of the bilayer. […] We tested this mutant against WT with a cytoplasmic addition of 0.6 mM paraben, which has been characterized previously. The typical activation curves (open probability vs. pipette pressure) measured with pipettes of equal size for the two channels are shown in Figure 2. Not only is the absolute shift of activating pressure (p0.5) greater for A98S, but the percentage of midpoint shift relative to the original midpoint averaged for six independent patches was 41% ± 6% for the mutant vs. 14% ± 4% for WT. […]
Spheroplasts were generated as described previously. […] Membrane patches were obtained on borosilicate glass pipettes and recorded at 30 mV pipette voltage set by a microelectrode amplifier. The midpoint of activation for channels in each patch was determined at two-minute intervals for the duration of the experiment via a 1 s ramp of saturating pressure. […]

CCCCOC(=O)c1ccc(O)cc1 [paraben, butyl paraben, reference compound]
Percentage of midpoint shift relative to the original midpoint [1]: 41% ± 6% | Percentage of midpoint shift relative to the original midpoint [2]: 14% ± 4%
